According to US20150258050A1, “METHOD FOR REDUCING TRIGLYCERIDES” (DEAKIN UNIVERSITY, priority 2012, published 2015):
“Also recorded” adds a separate entry of the source.

Experiments:
[1] = Postprandial plasma triacylglycerol concentration after test breakfasts (randomized cross-over study); assay type: in vivo, human
Source text: (§1) Ten healthy normal weight females between the age of 20 to 30 of took part in a randomized cross over study with three different breakfast meals. […] The baseline values for EPA and DHA proportions in erythrocytes were 1.0±0.1 and 6.7±0.6% (mean±standard error of the mean). Subjects with any form of cardiovascular disease based on self reported medical status and family history were excluded from the study. All subjects provided written informed consent. Ethics approval was obtained from the Deakin University Human Research Ethics Committee (EC2011-023).
(§2) This was a postprandial study where fasting blood was taken, followed by the consumption of a breakfast containing placebo (olive oil) or active oils (EPA or DPA) and then hourly post prandial blood samples were taken up to 5-hours.
(§3) The study breakfast consisted of 180 grams of instant mashed potato (Continental Deb™, Unilever, Australasia) mixed with 70 ml boiled water and 20 grams of oil. In each of the three meals 18 grams of lipids consisted of olive oil (La Espanola Pure Olive Oil, Seville, Spain). The DPA breakfast included 2 g of DPA (Equateq Ltd, Breasclete, Callanish, Scotland), the EPA breakfast 2 g of EPA (Equateq Ltd, Breasclete, Callanish, Scotland) and the control (olive oil) meal an additional 2 g of olive oil. EPA and DPA were included in the olive oil as free fatty acids. The subjects could use salt, pepper or chicken flavoured salt with the meal and were provided with water throughout the study period ad libitum. Subjects consumed the study meal within 15 minutes.
Venous blood was drawn at the fasting state and hourly post prandial for one to five hours. EDTA blood samples were immediately centrifuged for fifteen minutes at 591×g to isolate the plasma.
(§4) TAG concentrations in plasma and the isolated chylomicrons were measured on a Roche Cobas Integra 400 plus autoanalyser (Roche, Lavel, Quebec, Canada) by enzymatic colorimetric method using commercially available kits (TRIGL) as per the manufacturer's instructions (Roche, Lavel, Quebec, Canada).

[2] = Postprandial triacylglycerol concentration in chylomicron-rich fraction after test breakfasts; assay type: in vivo, human
Source text: as §1, §2, §3
(§5) A chylomicron-rich fraction (Svedberg flotation unit (Sf) >400), later abbreviated to “chylomicrons”, was isolated from plasma by ultracentrifugation using a Beckman ultra centrifuge and TLA 100.4 rotor (Beckman instruments, Palo Alto, Calif., USA) as previously described (Ågren et al., 2006). Briefly 1.8 ml of EDTA plasma was overlaid with saline solution (density=1.006 kg/I) in ultracentrifuge tubes and centrifuged at 35,000×g for 30 min at 23° C. The top 1 millilitre was aspirated to remove the chylomicron-rich fraction. All samples were frozen at −80° C. prior analysis.
as §4

[3] = Chylomicron TAG polyunsaturated fatty acids (gas chromatography of FAME); assay type: in vivo, human; details: for EPA (20:5n-3) proportion in chylomicron TAGs: one to five hours postprandial, compared to the other breakfasts
Method: as §2, §3, §5
An internal standard mixture of triheptadecanoin (Sigma-Aldrich, St. Louis, Mo., USA), dinonadecanoylphosphatidylcholine (Sigma-Aldrich, St. Louis, Mo., USA) and cholesterylpentadecanoate (Nu-Chek Prep. Inc., Elysian, Minn., USA) was added to the isolated chylomicrons. Then 1.5 ml methanol, 3 ml chloroform and 0.8 ml 0.88% KCl in water were added and the blend was thoroughly vortexed after each addition. The tubes were centrifuged 2000×g for 3 minutes to separate the layers, and the chloroform rich layer was removed and evaporated to dryness (Folch et al., (1957) J Biol Chem 226:497-509). TAGs and phospholipids were isolated from the extracted lipid mixture with solid phase extraction based on silica columns (Hamilton and Comai, (1988) Lipids 23:1146-1149).
Fatty acid methyl esters (FAME) were prepared with a sodium methoxide method. In short, the lipids were suspended to 1 ml dry diethylether. 25 μl methylacetate and 25 μl sodium methoxide were added and the blend was incubated for 5 minutes while shaken at times. The reaction was stopped with 6 μl acetic acid. The tubes were centrifuged 2000×g for 5 minutes, after which the supernatant was removed and gently evaporated to dryness. The resulting FAME were transferred to 100 μl inserts in hexane (Christie (1982) J Lipid Res 23:1072-1075). The FAME were analysed with gas chromatography (Shimadzu GC-2010 equipped with AOC-20i auto injector, flame ionization detector (Shimadzu corporation, Kyoto, Japan) and wall coated open tubular column DB-23 (60 m×0.25 mm i.d., liquid film 0.25 μm, Agilent technologies, J.W. Scientific, Santa Clara, Calif., USA). Splitless/split injection was used and the split was opened after 1 min. Supelco 37 Component FAME Mix (Supelco, St. Louis, Mo., USA), 68D (Nu-Check-Prep, Elysian, Minn., USA) and GLC-490 (Nu-Check-Prep, Elysian, Minn., USA) were used as external standards.

[4] = Lipidomics of PUFA containing chylomicron TAGs (LC-ESI-MS/MS); assay type: in vivo, human; details: 3 and 5 hour time points
Method: Lipidomic analysis of the one, three and five hour chylomicron samples was performed by liquid chromatography, electrospray ionisation-tandem mass spectrometry using an Applied Biosystems 4000 QTRAP mass spectrometer running Analyst 1.5 software. Liquid chromatography was performed on a Zorbax C18, 1.8 μm, 50×2.1 mm column (Agilent technologies, Santa Clara Calif., USA). The lipids of the chylomicrons were extracted with chloroform:methanol (2:1, 20 volumes), mixed, sonicated (30 mins) and allowed to stand for 20 mins. Samples were centrifuged (16 000×g, 10 min) and the supernatant transferred to a 96 well PPE plate and dried until a stream of nitrogen at 40° C. […] Quantification of individual TAG species was performed using scheduled multiple-reaction monitoring (MRM) in the positive ion mode (Murphy et al., (2007) Anal Biochem 366:59-70). Lipid concentrations (pmol/mL) were calculated by relating the peak area of each species to the peak area of the internal standard of triheptadecanoin (Sigma Aldrich, St Louis Mo., USA) for TAGs, cholestyl ester-18:0D6 (CDN isotopes, Quebec, Canada) for cholesteryl esters, phosphatidyl choline-13:0/13:0 (Avanti Polar Lipids, Alabaster Ala., USA) for phosphatidyl cholines and phosphatidyl ethanolamine-17:0/17:0 (Avanti Polar Lipids, Alabaster Ala., USA) for ethanolamines and phosphatidyl inositols (using Multiquant 1.2 software). […]

[5] = Complaints reported after the study breakfasts; assay type: in vivo, human
Method: as §3
After the DPA meal, there were two cases of diarrhea and one case of upset stomach but no diarrhea. One case of diarrhea was reported after the EPA meal, and there were no complaints after the olive oil meal. All complaints occurred 2 to 3 hours after the breakfast.

[6] = rats, short term supplementation; cited from earlier work
[7] = Chylomicron phospholipid fatty acids (gas chromatography of FAME); assay type: in vivo, human; details: at 2 h
Method: as §2
as §3, with “EPA and DPA were included in the olive oil as free fatty acids. The subjects could use salt, pepper or chicken flavoured salt with the meal and were provided with water throughout the study period ad libitum. Subjects consumed the study meal within 15 minutes.” left out
Fatty acid methyl esters (FAME) were prepared with a sodium methoxide method. […] The FAME were analysed with gas chromatography (Shimadzu GC-2010 equipped with AOC-20i auto injector, flame ionization detector (Shimadzu corporation, Kyoto, Japan) and wall coated open tubular column DB-23 (60 m×0.25 mm i.d., liquid film 0.25 μm, Agilent technologies, J.W. Scientific, Santa Clara, Calif., USA). Splitless/split injection was used and the split was opened after 1 min. Supelco 37 Component FAME Mix (Supelco, St. Louis, Mo., USA), 68D (Nu-Check-Prep, Elysian, Minn., USA) and GLC-490 (Nu-Check-Prep, Elysian, Minn., USA) were used as external standards.

[8] = 2 g in breakfast, 10 subjects, 2 to 3 hours after breakfast

| DHA (22:6n-3) in chylomicron TAGs, compared to olive oil breakfast ([3]; at 2 h and 3 h) | EPA (20:5n-3) proportion in chylomicron TAGs [3] | DPA (22:5n-3) content in chylomicron TAGs ([3]; vs olive oil meal 2-5 h (3 h p=0.06), vs EPA meal 3-5 h) | TAG 58:9 in chylomicrons, compared to olive oil breakfast [4] | Cases of diarrhea after the meal [5, 8] | Cases of upset stomach but no diarrhea after the meal [5, 8] | Subjects reporting diarrhea or upset stomach ([5]; in the three hours following the breakfast) | DHA (22:6n-3) in chylomicron TAGs, compared to olive oil breakfast ([3]; at 5 h) | Amount of DPA and DHA in chylomicron phospholipids, compared to olive oil breakfast [7] | Proportion of EPA in chylomicron phospholipids, compared to the two other breakfasts [7] | Compound | Difference between plasma TAG areas, compared to control meal ([1]; 2 g in breakfast, p=0.078) | Plasma TAG concentration at individual time points, compared to control meal ([1]; one and two hours, p=0.024 and p=0.014) | Plasma triglyceride level after consumption ([1]; postprandial) | Incorporation of fatty acids in chylomicrons ([2]; 2 g added to 18 g olive oil, within five hours) | Chylomicron TAG level after the breakfast ([2]; 2 g free fatty acid in 18 g olive oil, up to 5 h postprandial, n=10) | Incremental area under the chylomicron TAG curve, compared to olive oil meal ([2]; 2 g in breakfast, p=0.021) | Incremental area under the chylomicron TAG curve, compared to EPA meal ([2]; 2 g in breakfast, p=0.034) | Chylomicron TAG concentration at individual time points, compared to control meal ([2]; one and two hours, p=0.017 and p=0.068) | Concentration of DHA in liver [6] | Concentration of EPA in the liver, heart and skeletal muscle [6] |
| --- | --- | --- | --- | --- | --- | --- | --- | --- | --- | --- | --- | --- | --- | --- | --- | --- | --- | --- | --- | --- |
| significantly increased | did not raise | significantly higher | significantly more | two | one | three out of the ten |  |  |  | CCC=CCC=CCC=CCC=CCC=CCCCCCC(=O)O [DPA, 7, 10, 13, 16, 19 docosapentaenoic acid] | tended to be significant | smaller | remained close to fasting levels | almost completely eliminates | remained close to fasting levels; also recorded: remained at almost fasting level | significantly reduced | significantly reduced | smaller | significantly increased | significantly increased |
|  | significantly higher |  | significantly more | One |  |  | significantly increased | increased | increased | CC/C=C\C/C=C\C/C=C\C/C=C\C/C=C\CCCC(=O)O [EPA, eicosapentaenoic acid, reference compound] |  |  |  |  |  |  |  |  |  |  |
